These compounds were tested against T1, human ferroportin (Homo sapiens, UniProt Q9NP59) (assay: Biological in-vitro ferroportin internalization assay (luciferase reporter)). Details: average pEC50; stably-transfected CHO cell line expressing human ferroportin tagged to a luciferase reporter; 6 h incubation with test compound.
T1 construct: luciferase reporter (read with the Nano-Glo Luciferase Assay System); expressed in transfected cells; host or cells: CHO cells, stably transfected, expression induced with doxycycline
T1 sequence (Q9NP59 1-571): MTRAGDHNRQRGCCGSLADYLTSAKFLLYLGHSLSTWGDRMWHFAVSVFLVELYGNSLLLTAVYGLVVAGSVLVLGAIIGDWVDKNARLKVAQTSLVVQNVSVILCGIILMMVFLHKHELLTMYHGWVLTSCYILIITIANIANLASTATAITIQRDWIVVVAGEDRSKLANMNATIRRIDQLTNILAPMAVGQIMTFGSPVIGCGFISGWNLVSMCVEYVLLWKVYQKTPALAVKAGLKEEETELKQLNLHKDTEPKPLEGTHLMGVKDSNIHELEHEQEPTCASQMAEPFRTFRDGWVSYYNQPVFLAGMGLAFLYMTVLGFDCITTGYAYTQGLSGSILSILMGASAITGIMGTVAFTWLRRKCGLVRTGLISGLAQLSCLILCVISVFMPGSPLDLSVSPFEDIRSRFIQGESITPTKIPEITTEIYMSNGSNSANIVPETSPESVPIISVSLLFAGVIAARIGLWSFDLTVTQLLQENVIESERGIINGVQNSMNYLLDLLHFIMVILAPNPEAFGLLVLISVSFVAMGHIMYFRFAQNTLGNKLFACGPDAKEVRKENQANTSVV
Assay type: cell-based
Outline: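 Stably transfected CHO cells expressing luciferase-tagged human ferroportin, plated 24 h with ferric ammonium citrate and induced with doxycycline for 24 h. Compounds incubated 6 h, then luciferase activity measured by Nano-Glo; average pEC50 reported.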

Row | Compound | pEC50
1 | COc1ncc(NC(=O)CN(C)c2nc(-c3cc(OC(C)(C)CO)ccn3)nc3c2CCC3)cn1 [Compound 276, 2-[(2-{4-[(1-hydroxy-2-methylpropan-2-yl)oxy]pyridin-2-yl}-5H,6H,7H-cyclopenta[d]pyrimidin-4-yl)(methyl)amino]-N-(2-methoxypyrimidin-5-yl)acetamide] | 7.7
2 | CN(CC(=O)NC(C)(C)C)c1nc(-c2cocn2)nc2c1CCC2 [Compound 163, N-tert-butyl-2-{methyl[2-(1,3-oxazol-4-yl)-5H,6H,7H-cyclopenta[d]pyrimidin-4-yl]amino}acetamide] | 5.4
3 | c1ccc(-c2nc3c(c(N4CCCOCC4)n2)CCC3)nc1 [Compound 93, 4-[2-(pyridin-2-yl)-5H,6H,7H-cyclopenta[d]pyrimidin-4-yl]-1,4-oxazepane] | 6.1
4 | c1ccc(-c2nc3c(c(N4CCCO[C@@H]5CCC[C@@H]54)n2)CCC3)nc1 [Compound 48, 2-{4-[(5aS,8aR)-octahydro-2H-cyclopenta[b][1,4]oxazepin-5-yl]-5H,6H,7H-cyclopenta[d]pyrimidin-2-yl}pyridine] | 6.8
5 | CN(c1nc(-c2ccccn2)nc2c1CCC2)C1CCN(c2ccccc2)C1=O (centres unmarked) [Compound 95, 3-{methyl[2-(pyridin-2-yl)-5H,6H,7H-cyclopenta[d]pyrimidin-4-yl]amino}-1-phenylpyrrolidin-2-one] | 7.3
6 | Cc1cnc(-c2nc3c(c(N(C)CC(=O)NC(C)(C)C)n2)CCC3)cc1OCCO [Compound 191, N-tert-butyl-2-({2-[4-(2-hydroxyethoxy)-5-methylpyridin-2-yl]-5H,6H,7H-cyclopenta[d]pyrimidin-4-yl}(methyl)amino)acetamide] | 7
7 | CC(C(=O)NC(C)(C)C)N(C)c1nc(-c2ccccn2)nc2c1CCC2 (centres unmarked) [Compound 90, N-tert-butyl-2-{methyl[2-(pyridin-2-yl)-5H,6H,7H-cyclopenta[d]pyrimidin-4-yl]amino}propanamide] | 7.4
8 | CN(CC(=O)Nc1ccc2cccnc2c1)c1nc(-c2ccccn2)nc2c1CCC2 [Compound 21, 2-{methyl[2-(pyridin-2-yl)-5H,6H,7H-cyclopenta[d]pyrimidin-4-yl]amino}-N-(quinolin-7-yl)acetamide] | 6.9
9 | CC[C@@](C)(O)COc1ccnc(-c2nc3c(c(N(C)CC(=O)NC(C)(C)C)n2)CCC3)c1 [Compound 445, N-tert-butyl-2-[(2-{4-[(2R)-2-hydroxy-2-methylbutoxy]pyridin-2-yl}-5H,6H,7H-cyclopenta[d]pyrimidin-4-yl)(methyl)amino]acetamide] | 8.3
10 | CN(CC(=O)Nc1cccc(F)c1)c1nc(-c2cc(OCC(C)(C)O)ccn2)nc2c1CCC2 [Compound 280, N-(3-fluorophenyl)-2-({2-[4-(2-hydroxy-2-methylpropoxy)pyridin-2-yl]-5H,6H,7H-cyclopenta[d]pyrimidin-4-yl}(methyl)amino)acetamide] | 8.3
11 | CSCC[C@H](C(=O)NC(C)(C)C)N(C)c1nc(-c2cc(OC(F)F)ccn2)nc2c1CCC2 [Compound 212, (2R)—N-tert-butyl-2-({2-[4-(difluoromethoxy)pyridin-2-yl]-5H,6H,7H-cyclopenta[d]pyrimidin-4-yl}(methyl)amino)-4-(methylsulfanyl)butanamide] | 7.1
12 | Cc1ccnc(-c2nc3c(c(N4CCCO[C@@H]5CCC[C@@H]54)n2)CCC3)c1 [Compound 49, 2-{4-[(5aS,8aR)-octahydro-2H-cyclopenta[b][1,4]oxazepin-5-yl]-5H,6H,7H-cyclopenta[d]pyrimidin-2-yl}-4-methylpyridine] | 7.1
13 | COc1ccc(NC(=O)CN(C)c2nc(-c3cc(OC(F)F)ccn3)nc3c2CCC3)cn1 [Compound 225, 2-({2-[4-(difluoromethoxy)pyridin-2-yl]-5H,6H,7H-cyclopenta[d]pyrimidin-4-yl}(methyl)amino)-N-(6-methoxypyridin-3-yl)acetamide] | 6.8
14 | CN(CC(=O)NC1(C)CCOC1)c1nc(-c2cc3cn[nH]c3cn2)nc2c1CCC2 (centres unmarked) [Compound 185, 2-[methyl(2-{1H-pyrazolo[3,4-c]pyridin-5-yl}-5H,6H,7H-cyclopenta[d]pyrimidin-4-yl)amino]-N-(3-methyloxolan-3-yl)acetamide] | 7.2
15 | CN(c1nc(-c2ccccn2)nc2c1CCC2)[C@H](CO)C(=O)NC(C)(C)C [Compound 124, (2R)—N-tert-butyl-3-hydroxy-2-{methyl[2-(pyridin-2-yl)-5H,6H,7H-cyclopenta[d]pyrimidin-4-yl]amino}propanamide] | 7
16 | COc1cc(-c2nc3c(c(N(C)CC(=O)NC(C)(C)C)n2)CCC3)ncc1C [Compound 192, N-tert-butyl-2-{[2-(4-methoxy-5-methylpyridin-2-yl)-5H,6H,7H-cyclopenta[d]pyrimidin-4-yl](methyl)amino}acetamide] | 6.5
17 | CC(C)(C)NC(=O)CNc1nc(-c2ccccn2)nc2c1CCCC2 [Compound 10, N-tert-butyl-2-{[2-(pyridin-2-yl)-5,6,7,8-tetrahydroquinazolin-4-yl]amino}acetamide] | 6.6
18 | Cc1ccc(NC(=O)CN(C)c2nc(-c3cc4c(CO)cccc4cn3)nc3c2CCC3)cn1 [Compound 270, 2-({2-[5-(hydroxymethyl)isoquinolin-3-yl]-5H,6H,7H-cyclopenta[d]pyrimidin-4-yl}(methyl)amino)-N-(6-methylpyridin-3-yl)acetamide] | 7.5

Next, values leading:

Row | pEC50 | Compound
19 | 6.4 | CN(CC(=O)NC(C)(C)C)c1nc(-c2cc(OCC(C)(C)O)ccn2)nc2c1CCC2=O [Compound 501, N-tert-butyl-2-({2-[4-(2-hydroxy-2-methylpropoxy)pyridin-2-yl]-7-oxo-5H,6H,7H-cyclopenta[d]pyrimidin-4-yl}(methyl)amino)acetamide]
20 | 7.8 | CN(CC(=O)N1CCCC1(C)C)c1nc(-c2cc(OCCO)ccn2)nc2c1CCC2 [Compound 368, 1-(2,2-dimethylpyrrolidin-1-yl)-2-({2-[4-(2-hydroxyethoxy)pyridin-2-yl]-5H,6H,7H-cyclopenta[d]pyrimidin-4-yl}(methyl)amino)ethan-1-one]
21 | 7.5 | COc1ccnc(-c2nc3c(c(N(C)CC(=O)N[C@H]4CCOC4)n2)CCC3)c1 [Compound 371, 2-{[2-(4-methoxypyridin-2-yl)-5H,6H,7H-cyclopenta[d]pyrimidin-4-yl](methyl)amino}-N-[(3S)-oxolan-3-yl]acetamide]
22 | 8.3 | CN(CC(=O)NC(C)(C)C)c1nc(-c2cc(OCC3(O)CCCC3)ccn2)nc2c1CCC2 [Compound 381, N-tert-butyl-2-[(2-{4-[(1-hydroxycyclopentyl)methoxy]pyridin-2-yl}-5H,6H,7H-cyclopenta[d]pyrimidin-4-yl)(methyl)amino]acetamide]
23 | 7.6 | COc1ccc(NC(=O)CN(C)c2nc(-c3cc(O[C@@H]4CCOC4)ccn3)nc3c2CCC3)cn1 [Compound 346, N-(6-methoxypyridin-3-yl)-2-[methyl(2-{4-[(3R)-oxolan-3-yloxy]pyridin-2-yl}-5H,6H,7H-cyclopenta[d]pyrimidin-4-yl)amino]acetamide]
24 | 6.4 | Cc1cc(-c2nc3c(c(N(C)CC(=O)NC(C)(C)C)n2)CCC3)ncc1F [Compound 303, N-tert-butyl-2-{[2-(5-fluoro-4-methylpyridin-2-yl)-5H,6H,7H-cyclopenta[d]pyrimidin-4-yl](methyl)amino}acetamide]
25 | 6.2 | CC(C)NC(=O)CN(C)c1nc(-c2cc(OCCN(C)C)ccn2)nc2c1CCC2(C)C [Compound 456, 2-[(2-{4-[2-(dimethylamino)ethoxy]pyridin-2-yl}-7,7-dimethyl-5H,6H,7H-cyclopenta[d]pyrimidin-4-yl)(methyl)amino]-N-(propan-2-yl)acetamide]
26 | 7.7 | Cc1cnc(NC(=O)CN(C)c2nc(-c3cc(OCCO)ccn3)nc3c2CCC3)cn1 [Compound 284, 2-({2-[4-(2-hydroxyethoxy)pyridin-2-yl]-5H,6H,7H-cyclopenta[d]pyrimidin-4-yl}(methyl)amino)-N-(5-methylpyrazin-2-yl)acetamide]
27 | 6.7 | COc1ccnc(-c2nc3c(c(N(C)CC(=O)NCCN(C)C)n2)CCC3)c1 [Compound 476, N-[2-(dimethylamino)ethyl]-2-{[2-(4-methoxypyridin-2-yl)-5H,6H,7H-cyclopenta[d]pyrimidin-4-yl](methyl)amino}acetamide]
28 | 7.5 | CSc1ccnc(-c2nc3c(c(N(C)CC(=O)NC(C)(C)C)n2)CCC3)c1 [Compound 498, N-tert-butyl-2-[methyl({2-[4-(methylsulfanyl)pyridin-2-yl]-5H,6H,7H-cyclopenta[d]pyrimidin-4-yl})amino]acetamide]
29 | 7.6 | CCNC(=O)CN(C)c1nc(-c2cc(OCC3(O)CCOCC3)ccn2)nc2c1CCC2 [Compound 447, N-ethyl-2-[(2-{4-[(4-hydroxyoxan-4-yl)methoxy]pyridin-2-yl}-5H,6H,7H-cyclopenta[d]pyrimidin-4-yl)(methyl)amino]acetamide]
